Test results reported in article PMC5218480 (PLoS ONE, 2017).

Test system: MV-4-11 cells
Assay: Gene expression microarray analysis (Affymetrix PrimeView) and GSEA
Type: cell-based, human
Parameters: RFU PODN (11730768_x_at) / Fold change /veh PODN (11730768_x_at) / RFU LINC00158 (11744669_a_at) / Fold change /veh LINC00158 (11744669_a_at) / RFU DUSP10 (11751237_a_at) / Fold change /veh DUSP10 (11751237_a_at) / RFU ID3 (11757404_x_at) / Fold change /veh ID3 (11757404_x_at) / RFU PLEKHG5 (11737974_s_at) / Fold change /veh PLEKHG5 (11737974_s_at) / RFU LRRC4B (11730491_at) / Fold change /veh LRRC4B (11730491_at) / RFU GIMAP4 (11747438_a_at) / Fold change /veh GIMAP4 (11747438_a_at) / RFU KRT8 (11758183_x_at) / Fold change /veh KRT8 (11758183_x_at) / RFU CNN1 (11734310_a_at) / Fold change /veh CNN1 (11734310_a_at) / RFU VPS37D (11726825_at) / Fold change /veh VPS37D (11726825_at) / RFU C10orf10 (11716522_x_at) / Fold change /veh C10orf10 (11716522_x_at) / RFU KIR2DL2 /// KIR2DL4 /// KIR2DL5A /// KIR2DL5B /// KIR2DS1 /// KIR2DS2 /// KIR2DS3 /// KIR2DS4 /// KIR3DL3 /// KIR3DL3 /// KIR3DS1 (11738374_at) / Fold change /veh KIR2DL2 /// KIR2DL4 /// KIR2DL5A /// KIR2DL5B /// KIR2DS1 /// KIR2DS2 /// KIR2DS3 /// KIR2DS4 /// KIR3DL3 /// KIR3DL3 /// KIR3DS1 (11738374_at) / RFU C1QL1 (11718748_at) / Fold change /veh C1QL1 (11718748_at) / RFU TMPRSS4 (11747572_a_at) / Fold change /veh TMPRSS4 (11747572_a_at) / RFU HAMP (11756126_x_at) / Fold change /veh HAMP (11756126_x_at) / RFU RNFT2 (11725882_a_at) / Fold change /veh RNFT2 (11725882_a_at) / RFU NR4A2 (11747474_a_at) / Fold change /veh NR4A2 (11747474_a_at) / RFU ABCC12 (11746883_a_at) / Fold change /veh ABCC12 (11746883_a_at) / RFU TMEM136 (11760407_x_at) / Fold change /veh TMEM136 (11760407_x_at) / RFU CLDN22 /// WWC2 (11732394_at) / Fold change /veh CLDN22 /// WWC2 (11732394_at) / RFU HLA-DPB1 (11760878_x_at) / Fold change /veh HLA-DPB1 (11760878_x_at) / RFU SPINT1 (11716480_a_at) / Fold change /veh SPINT1 (11716480_a_at) / RFU GAP43 (11754022_s_at) / Fold change /veh GAP43 (11754022_s_at) / RFU A4GNT (11735810_at) / Fold change /veh A4GNT (11735810_at) / RFU PRB3 (11715151_x_at) / Fold change /veh PRB3 (11715151_x_at) / RFU TUBB4B (11761932_at) / Fold change /veh TUBB4B (11761932_at) / RFU CAPN14 (11732068_a_at) / Fold change /veh CAPN14 (11732068_a_at) / RFU TMCC2 (11721928_a_at) / Fold change /veh TMCC2 (11721928_a_at) / RFU IRGQ (11745062_a_at) / Fold change /veh IRGQ (11745062_a_at) / RFU FAM174B (11720279_a_at) / Fold change /veh FAM174B (11720279_a_at) / RFU TMPRSS4 (11748680_a_at) / Fold change /veh TMPRSS4 (11748680_a_at) / RFU FAM212B (11763350_a_at) / Fold change /veh FAM212B (11763350_a_at) / RFU PLEKHG5 (11743358_a_at) / Fold change /veh PLEKHG5 (11743358_a_at) / RFU ZSCAN30 (11745921_a_at) / Fold change /veh ZSCAN30 (11745921_a_at) / RFU CMKLR1 (11741424_a_at) / Fold change /veh CMKLR1 (11741424_a_at) / RFU LOC101060620 /// MAPK8IP1 (11723275_at) / Fold change /veh LOC101060620 /// MAPK8IP1 (11723275_at) / RFU SPTSSB (11747773_x_at) / Fold change /veh SPTSSB (11747773_x_at) / RFU PRSS12 (11739890_at) / Fold change /veh PRSS12 (11739890_at) / RFU BIN1 (11741810_x_at) / Fold change /veh BIN1 (11741810_x_at) / RFU WNT11 (11732464_a_at) / Fold change /veh WNT11 (11732464_a_at) / RFU C10orf10 (11716521_a_at) / Fold change /veh C10orf10 (11716521_a_at) / RFU C5orf56 (11738089_at) / Fold change /veh C5orf56 (11738089_at) / RFU CYB561 (11721691_x_at) / Fold change /veh CYB561 (11721691_x_at) / RFU ANKRD19P (11752326_a_at) / Fold change /veh ANKRD19P (11752326_a_at) / RFU OR2T12 /// OR2T33 /// OR2T8 (11738714_s_at) / Fold change /veh OR2T12 /// OR2T33 /// OR2T8 (11738714_s_at) / RFU VCAN (11748164_a_at) / Fold change /veh VCAN (11748164_a_at) / RFU JSRP1 (11732532_at) / Fold change /veh JSRP1 (11732532_at) / RFU KRTAP10-11 (11738290_x_at) / Fold change /veh KRTAP10-11 (11738290_x_at) / RFU MYO3A (11730013_a_at) / Fold change /veh MYO3A (11730013_a_at) / RFU EBF3 (11725865_a_at) / Fold change /veh EBF3 (11725865_a_at) / RFU CAMK2N1 (11719241_x_at) / Fold change /veh CAMK2N1 (11719241_x_at) / RFU C5orf56 (11738088_a_at) / Fold change /veh C5orf56 (11738088_a_at) / RFU OLFML3 (11715873_a_at) / Fold change /veh OLFML3 (11715873_a_at) / RFU LOC100653217 /// NTM (11731650_a_at) / Fold change /veh LOC100653217 /// NTM (11731650_a_at) / RFU MAPK11 (11762145_a_at) / Fold change /veh MAPK11 (11762145_a_at) / RFU FIZ1 (11724087_x_at) / Fold change /veh FIZ1 (11724087_x_at) / RFU OASL (11726364_x_at) / Fold change /veh OASL (11726364_x_at) / RFU SOX15 (11748057_x_at) / Fold change /veh SOX15 (11748057_x_at) / RFU CD79A (11719716_a_at) / Fold change /veh CD79A (11719716_a_at) / RFU HIST1H1D (11736915_at) / Fold change /veh HIST1H1D (11736915_at) / RFU CASKIN2 (11723855_a_at) / Fold change /veh CASKIN2 (11723855_a_at) / RFU LOC730098 (11760151_x_at) / Fold change /veh LOC730098 (11760151_x_at) / RFU OR4N2 (11742367_at) / Fold change /veh OR4N2 (11742367_at) / RFU PRRT2 (11749266_a_at) / Fold change /veh PRRT2 (11749266_a_at) / RFU SNX32 (11753110_a_at) / Fold change /veh SNX32 (11753110_a_at) / RFU CDHR5 (11726645_a_at) / Fold change /veh CDHR5 (11726645_a_at) / RFU RCAN1 (11760418_a_at) / Fold change /veh RCAN1 (11760418_a_at) / RFU FAM167A (11723789_a_at) / Fold change /veh FAM167A (11723789_a_at) / RFU FAM26E (11764081_at) / Fold change /veh FAM26E (11764081_at) / RFU ISYNA1 (11749810_s_at) / Fold change /veh ISYNA1 (11749810_s_at) / RFU ACY1 (11761880_at) / Fold change /veh ACY1 (11761880_at) / RFU 11764098_at / Fold change /veh 11764098_at / RFU SAMD14 (11745864_x_at) / Fold change /veh SAMD14 (11745864_x_at) / RFU NPB (11741838_a_at) / Fold change /veh NPB (11741838_a_at) / RFU TMPRSS6 (11731388_a_at) / Fold change /veh TMPRSS6 (11731388_a_at) / RFU KRTAP10-2 (11738614_at) / Fold change /veh KRTAP10-2 (11738614_at) / RFU ARHGAP8 /// PRR5-ARHGAP8 (11727945_x_at) / Fold change /veh ARHGAP8 /// PRR5-ARHGAP8 (11727945_x_at) / RFU KRTAP5-7 /// NADSYN1 (11734609_at) / Fold change /veh KRTAP5-7 /// NADSYN1 (11734609_at) / RFU RASL12 (11751679_a_at) / Fold change /veh RASL12 (11751679_a_at) / RFU CDKN2B (11736163_a_at) / Fold change /veh CDKN2B (11736163_a_at) / RFU PRF1 (11729649_at) / Fold change /veh PRF1 (11729649_at) / RFU, ZNF638 /// ZNF638-IT1 / Fold change vs veh, ZNF638 /// ZNF638-IT1 / RFU, PANK3 / Fold change vs veh, PANK3 / RFU, SH3YL1 / Fold change vs veh, SH3YL1 / RFU, ZEB2 / Fold change vs veh, ZEB2 / RFU, NRIP1 / Fold change vs veh, NRIP1 / RFU, PTTG1IP / Fold change vs veh, PTTG1IP / RFU, CAPN2 / Fold change vs veh, CAPN2 / RFU, MED14 / Fold change vs veh, MED14 / RFU, SNORA58 / Fold change vs veh, SNORA58 / RFU, C1orf63 / Fold change vs veh, C1orf63 / RFU, LRRFIP1 / Fold change vs veh, LRRFIP1 / RFU, NDUFAF7 / Fold change vs veh, NDUFAF7 / RFU, SLC12A2 / Fold change vs veh, SLC12A2 / RFU, IBTK / Fold change vs veh, IBTK / RFU, ESF1 / Fold change vs veh, ESF1 / Fold change vs veh, TMEM50B / RFU, TAOK1 / Fold change vs veh, TAOK1 / RFU, ACBD3 / Fold change vs veh, ACBD3 / RFU, TMA16 / Fold change vs veh, TMA16 / RFU, RWDD3 / Fold change vs veh, RWDD3 / RFU, BCAT1 / Fold change vs veh, BCAT1 / RFU, EDEM3 / Fold change vs veh, EDEM3 / RFU, TMEM33 / Fold change vs veh, TMEM33 / RFU, WDR75 / Fold change vs veh, WDR75 / RFU, AHCTF1 / Fold change vs veh, AHCTF1 / RFU, TFRC / Fold change vs veh, TFRC / RFU, ZDHHC17 / Fold change vs veh, ZDHHC17 / RFU, NOM1 / Fold change vs veh, NOM1 / RFU, ARL8B / Fold change vs veh, ARL8B / RFU, ZBTB11 / Fold change vs veh, ZBTB11 / RFU, TAMM41 / Fold change vs veh, TAMM41 / RFU, KIAA1704 /// LOC100996395 / Fold change vs veh, KIAA1704 /// LOC100996395 / RFU, ING1 / Fold change vs veh, ING1 / RFU, TRMT61B / Fold change vs veh, TRMT61B / RFU, FUBP3 / Fold change vs veh, FUBP3 / RFU, TP53 / Fold change vs veh, TP53 / RFU, TNKS2 / Fold change vs veh, TNKS2 / RFU, ZFP14 / Fold change vs veh, ZFP14 / RFU, ACTR2 / Fold change vs veh, ACTR2 / RFU, PPP3R1 / Fold change vs veh, PPP3R1 / RFU, PIK3R1 / Fold change vs veh, PIK3R1 / RFU, HNRNPA1 / Fold change vs veh, HNRNPA1 / RFU, RNF170 / Fold change vs veh, RNF170 / RFU, ZNF28 / Fold change vs veh, ZNF28 / RFU, RNGTT / Fold change vs veh, RNGTT / RFU, OGT / Fold change vs veh, OGT / RFU, BRD1 / Fold change vs veh, BRD1 / RFU, MARS / Fold change vs veh, MARS / RFU, ZNF655 / Fold change vs veh, ZNF655 / RFU, FAHD1 / Fold change vs veh, FAHD1 / RFU, BDP1 / Fold change vs veh, BDP1 / RFU, LRRCC1 / Fold change vs veh, LRRCC1 / RFU, ARID1A / Fold change vs veh, ARID1A / RFU, ZNF146 / Fold change vs veh, ZNF146 / RFU, ZNF330 / Fold change vs veh, ZNF330 / RFU, GPN3 / Fold change vs veh, GPN3 / RFU, C9orf123 / Fold change vs veh, C9orf123 / RFU, N4BP2L2 / Fold change vs veh, N4BP2L2 / RFU, ARFIP1 / Fold change vs veh, ARFIP1 / RFU, FAM179B / Fold change vs veh, FAM179B / RFU, BCL10 / Fold change vs veh, BCL10 / RFU, UHRF1BP1L / Fold change vs veh, UHRF1BP1L / RFU, BET1 / Fold change vs veh, BET1 / RFU, CNOT2 / Fold change vs veh, CNOT2 / RFU, ZNF268 / Fold change vs veh, ZNF268 / Fold change vs veh, ZNF507 / RFU, DGCR2 / Fold change vs veh, DGCR2 / RFU, WDSUB1 / Fold change vs veh, WDSUB1 / Fold change vs veh, HSP90B1 /// MIR3652 / RFU, ADSS / Fold change vs veh, ADSS / RFU, GK / Fold change vs veh, GK / RFU, ZNF148 / Fold change vs veh, ZNF148 / RFU, TAF9 / Fold change vs veh, TAF9 / RFU, SLC1A5 / Fold change vs veh, SLC1A5 / RFU, SLMO2 / Fold change vs veh, SLMO2 / RFU, ABCC4 / Fold change vs veh, ABCC4 / RFU, LOC101060439 /// RAP1B / Fold change vs veh, LOC101060439 /// RAP1B / RFU, RFX7 / Fold change vs veh, RFX7 / RFU, GTPBP10 / Fold change vs veh, GTPBP10 / RFU, CNEP1R1 / Fold change vs veh, CNEP1R1 / RFU, BIVM-ERCC5 /// ERCC5 / Fold change vs veh, BIVM-ERCC5 /// ERCC5 / RFU, ILF3 / Fold change vs veh, ILF3 / RFU 11762660_at / Fold change /veh 11762660_at / RFU VCAN (11757783_s_at) / Fold change /veh VCAN (11757783_s_at) / RFU DDX43 (11728927_at) / Fold change /veh DDX43 (11728927_at) / RFU KRT8 (11758188_x_at) / Fold change /veh KRT8 (11758188_x_at) / RFU NKD1 (11759106_at) / Fold change /veh NKD1 (11759106_at) / RFU SRD5A1 (11742802_a_at) / Fold change /veh SRD5A1 (11742802_a_at) / RFU TPSAB1 /// TPSB2 (11721975_s_at) / Fold change /veh TPSAB1 /// TPSB2 (11721975_s_at) / RFU GSTM3 (11746129_a_at) / Fold change /veh GSTM3 (11746129_a_at) / RFU IL23R (11737362_x_at) / Fold change /veh IL23R (11737362_x_at) / RFU TMEM51 (11727254_a_at) / Fold change /veh TMEM51 (11727254_a_at) / RFU PIWIL2 (11732686_x_at) / Fold change /veh PIWIL2 (11732686_x_at) / RFU ORM1 (11744905_x_at) / Fold change /veh ORM1 (11744905_x_at) / RFU CCDC152 (11743942_at) / Fold change /veh CCDC152 (11743942_at) / RFU ECM1 (11717891_a_at) / Fold change /veh ECM1 (11717891_a_at) / RFU IL23R (11748794_a_at) / Fold change /veh IL23R (11748794_a_at) / RFU TNFAIP8L3 (11732012_x_at) / Fold change /veh TNFAIP8L3 (11732012_x_at) / RFU MBOAT4 (11741988_at) / Fold change /veh MBOAT4 (11741988_at) / RFU 11764193_at / Fold change /veh 11764193_at / RFU TMEM53 (11763286_at) / Fold change /veh TMEM53 (11763286_at) / RFU MAGEB2 (11727129_at) / Fold change /veh MAGEB2 (11727129_at) / RFU TMEM200A (11744735_a_at) / Fold change /veh TMEM200A (11744735_a_at) / RFU CCDC152 (11751479_a_at) / Fold change /veh CCDC152 (11751479_a_at) / RFU FAM211A (11726209_a_at) / Fold change /veh FAM211A (11726209_a_at) / RFU RGS16 (11746705_a_at) / Fold change /veh RGS16 (11746705_a_at) / RFU VCAN (11755009_s_at) / Fold change /veh VCAN (11755009_s_at) / RFU RHOB (11743442_s_at) / Fold change /veh RHOB (11743442_s_at) / RFU RGS16 (11720943_a_at) / Fold change /veh RGS16 (11720943_a_at) / RFU RGS16 (11720944_at) / Fold change /veh RGS16 (11720944_at) / RFU, VPS4B / Fold change vs veh, VPS4B / RFU, CREB1 / Fold change vs veh, CREB1 / RFU, DNAJC13 / Fold change vs veh, DNAJC13 / RFU, GNAQ / Fold change vs veh, GNAQ / RFU, CDK5R1 / Fold change vs veh, CDK5R1 / RFU, ZRANB3 / Fold change vs veh, ZRANB3 / RFU, CUL4A / Fold change vs veh, CUL4A / RFU, CCNY / Fold change vs veh, CCNY / RFU, UFL1 / Fold change vs veh, UFL1 / RFU, COG3 / Fold change vs veh, COG3 / RFU, DIAPH2 / Fold change vs veh, DIAPH2 / RFU, SKA2 / Fold change vs veh, SKA2 / RFU, AFF3 / Fold change vs veh, AFF3 / RFU, LMF1 / Fold change vs veh, LMF1 / RFU, IPO11 / Fold change vs veh, IPO11 / RFU, DFFB / Fold change vs veh, DFFB / RFU, FOXP1 / Fold change vs veh, FOXP1 / RFU, CARD8 / Fold change vs veh, CARD8 / RFU, STRN3 / Fold change vs veh, STRN3 / RFU, ADK / Fold change vs veh, ADK / RFU, RASSF2 / Fold change vs veh, RASSF2 / RFU, WIPF1 / Fold change vs veh, WIPF1 / RFU, LARP1B / Fold change vs veh, LARP1B / RFU, RASA1 / Fold change vs veh, RASA1 / RFU, RB1 / Fold change vs veh, RB1 / RFU, PPFIA1 / Fold change vs veh, PPFIA1 / RFU, MAT2A / Fold change vs veh, MAT2A / RFU, CCT5 / Fold change vs veh, CCT5 / RFU, WDR92 / Fold change vs veh, WDR92 / RFU, CUX1 / Fold change vs veh, CUX1 / RFU, TTC7A / Fold change vs veh, TTC7A / RFU, TMEM135 / Fold change vs veh, TMEM135 / RFU, DEPTOR / Fold change vs veh, DEPTOR / RFU, CPM / Fold change vs veh, CPM / RFU, DNAJB6 / Fold change vs veh, DNAJB6 / RFU, CACNA2D3 / Fold change vs veh, CACNA2D3 / RFU, DTX4 / Fold change vs veh, DTX4 / RFU, TFCP2 / Fold change vs veh, TFCP2 / RFU, GMCL1 /// GMCL1P1 / Fold change vs veh, GMCL1 /// GMCL1P1 / RFU, AEBP2 / Fold change vs veh, AEBP2 / RFU, SNHG1 /// SNORD22 /// SNORD25 /// SNORD26 /// SNORD27 /// SNORD28 /// SNORD29 /// SNORD31 / Fold change vs veh, SNHG1 /// SNORD22 /// SNORD25 /// SNORD26 /// SNORD27 /// SNORD28 /// SNORD29 /// SNORD31 / Fold change (Aza/veh), C12orf56 (ProbeSet 11735607_a_at) / Fold change (ACY-1035/veh), C12orf56 (ProbeSet 11735607_a_at) / Fold change (Aza/veh), FGFR1OP (ProbeSet 11751329_s_at) / Fold change (ACY-1035/veh), FGFR1OP (ProbeSet 11751329_s_at) / Fold change (Aza/veh), VPS36 (ProbeSet 11739960_a_at) / Fold change (ACY-1035/veh), VPS36 (ProbeSet 11739960_a_at) / RFU SYPL1 (11715823_x_at) / Fold change /veh SYPL1 (11715823_x_at) / RFU IGFBP7 (11715501_s_at) / Fold change /veh IGFBP7 (11715501_s_at) / RFU REEP3 (11722064_at) / Fold change /veh REEP3 (11722064_at) / RFU IGLL1 (11728026_x_at) / Fold change /veh IGLL1 (11728026_x_at): dose or concentration left out as unconfirmed
Conditions: ProbeSet 11758170_s_at; LIST D

Nc1ncn([C@@H]2O[C@H](CO)[C@@H](O)[C@H]2O)c(=O)n1 [azacitidine]
RFU, DIAPH2: 23.40 RFU
